Data reported in patent US8097650B2, “Method of treating a condition associated with phosphorylation of TASK-1” (The Trustees of Columbia University In The City of New York, priority 2005, dated 2012).

Key:
TREK-1 [1] = target: T1, TREK-1 (Homo sapiens, UniProt O95069); assay: Human TREK-1 current in CHO cells (ramp clamp); assay type: cell-based; design: expressed in transfected cells; host or cells: CHO cells; settings: +50 mV; riluzole 100 nM, anisomycin 3.7 μM, CDC 10 μM, tyrphostins 10 μM
T1 sequence (O95069 1-426): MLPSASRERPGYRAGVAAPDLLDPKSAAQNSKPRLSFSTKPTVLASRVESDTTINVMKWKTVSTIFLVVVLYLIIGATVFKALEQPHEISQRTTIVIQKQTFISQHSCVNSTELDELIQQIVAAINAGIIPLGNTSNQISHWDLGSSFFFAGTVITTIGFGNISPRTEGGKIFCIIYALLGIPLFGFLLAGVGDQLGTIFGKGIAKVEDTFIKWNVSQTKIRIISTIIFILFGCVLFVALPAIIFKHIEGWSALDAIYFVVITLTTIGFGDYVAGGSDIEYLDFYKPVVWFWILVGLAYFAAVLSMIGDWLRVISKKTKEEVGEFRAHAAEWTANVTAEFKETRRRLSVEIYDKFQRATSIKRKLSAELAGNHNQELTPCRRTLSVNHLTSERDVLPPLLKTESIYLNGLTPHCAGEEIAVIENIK
Experimental: FIG. 18. Structure-activity analysis of activators of human TREK-1 channel. Human TREK-1 was expressed in CHO cells and current was measured during a ramp protocol (−120 to +50 mV in 6 s). The activation of the current at +50 mV in the presence of various putative TREK-1 activators was measured and summarized in the bar graph as % activation over basal. Various endogenous lipids, most related to lipoxygenase metabolites of either arachidonic acid or linoleic acid, were tested (all at 100 nM).
FIG. 21. CHO cells (hTREK-1, hTASK-1) or HEK cells (mTRAAK) were co-transfected with plasmids encoding one of the two pore domain channels and GFP using the GeneJammer reagent. After 48-60 h, the expressed current was measured using a ramp protocol while the cells were perfused with regular Tyrode's solution containing varying concentrations of ONO-RS-082 (range of concentration from 10 nM to 500 μM as noted in FIG. 21) until a steady state was reached. Each cell was exposed to only one concentration of drug. Panel A: TREK-1 current was determined using a ramp clamp, and the percent increase induced by ONO-RS-082 was measured at the most positive imposed voltage (n≧5). The EC50 for activation was around 3 μM and the basal and ONO-activated current densities are noted. Panel B: TASK-1 current was determined using a ramp clamp in Tyrode's solution at pH=8 and the percent increase induced by ONO-RS-082 was measured at the most positive imposed voltage (n≧4). The EC50 was around 8 μM and the basal and ONO-activated current densities are noted. Panel C: TRAAK current was determined using a ramp clamp, and the percent increase induced by ONO-RS-082 was measured at the most positive imposed voltage (n≧4). The EC50 was around 0.9 μM and the basal and ONO-activated current densities are noted.
Subsequently, the structure-activity analysis of activators of human TREK-1 channel was determined. […] The activation of the current at +50 mV in the presence of various putative TREK-1 activators was measured and summarized in the bar graph as % activation over basal.
CHO cells were transfected with a plasmid encoding human TREK-1 and the current was studied by patch clamp. The current-voltage relation was determined using a ramp protocol that went from −130 mV to +40 mV in 6 s (after correction for the junction potential). […] This is typical of 7 cells.

TREK-1 [2] = target: T1, TREK-1; assay: Heterologous expression of TREK-1, lipoxygenase products; assay type: cell-based; design: expressed in transfected cells
Description: In heterologous expression studies of one 2PK, TREK-1, it has been observed that a divergence in the sensitivity of the channel to various lipoxygenase products exists. […] Altered channel function may underlie some of the aberrant regulation of cell proliferation characteristic of the carcinoma cells. In addition, it has been observed that Northern analysis of normal prostate tissue show expression of TASK-1, TASK-3 and TREK-1 in prostate (Duprat F et al., […] EMBO J. 16:5464-71; Mu D et al., (2003) Cancer Cell, 3:297-302; Medhurst A D et al., (2001) Brain Res, 86:101-14).

[3] = test system: murine ventricular myocytes; assay: Arrhythmias induced by PKCε activator peptide in murine ventricular myocytes, rescue by TREK-1 activators; assay type: cell-based, mouse; settings: AA 100 nM or tyrphostin 47 50 μM from 1 min after rupture
Experimental: FIGS. 23A-23D. Activation of TREK-1 can overcome arrhythmias induced by inhibition of TASK-1. Isolated murine ventricular myocytes were studied in current clamp mode and paced at 1 Hz. The cells were studied in regular Tyrode's, pH 7.4. Recordings were begun immediately after rupture and continued for 12-15 min, with the 5.5 min time point illustrated. A PKCε-specific activator peptide (100 nM) was included in the patch pipette, which lead to inhibition of TASK-1 current and repolarization abnormalities (23A and 23B).
FIG. 25. Activation of TREK-1 can overcome arrhythmias induced by inhibition of TASK-1. Isolated murine ventricular myocytes were studied in current clamp mode and paced at 1 Hz. The cells were studied in regular Tyrode's, pH 7.4. Recordings were begun immediately after rupture and continued for 12-15 min. A PKCε-specific activator peptide (100 nM) […] or a scrambled control peptide (100 nM) (25A) was included in the patch pipette. After the activator peptide had induced repolarization abnormalities (25B left panel), a TREK-1 activator, ONO-RS-082 (100 nM) was added to the superfusion.
Isolated murine ventricular myocytes were studied in current clamp mode and paced at 1 Hz. The cells were studied in regular Tyrode's, pH 7.4, and recordings were begun immediately after rupture and continued for 12-15 min, with the 5.5 min timepoint illustrated. As shown in FIGS. 23A and 23B, a PKCε-specific activator peptide (100 nM) was included in the patch pipette which lead to inhibition of TASK-1 current and repolarization abnormalities.

TASK-1 = assay: C-PAF-sensitive TASK-1 current in mouse ventricular myocytes dialyzed with PKCε peptides; assay type: cell-based; settings: for effect of peptide on ability of C-PAF to reduce TASK-1 current: held at −10 mV, peptide 100 nM in pipette, C-PAF 185 nM
Experimental: (§1) Mouse ventricular myocytes were isolated using a retrograde coronary perfusion method previously published (Kuznetsov V et al. (1995) Circ Res 76: 40-52). All the experiments were carried out according to the guidelines issued by the IACUC of Columbia University. Adult mice 2 or 3 months old, were anaesthetized with a xylazine and ketamine mix and heparinized, the heart was quickly removed and the ascending aorta was connected to the outlet of a Langendorff column and perfused with 20-25 ml of a buffer solution (37° C.) containing (mM):NaCl, 112; KCl, 5.4; NaHCO3, 4.2; MgCl2, 1.6; HEPES, 20; glucose, 5.4; NaH2PO4, 1.7; taurine, 10; L-glutamine, 4.1; MEM amino acids solution, 2%; MEM vitamin solution, 1%; adjusted to pH 7.4, and equilibrated with 100% O2. Next, the heart was perfused with an enzyme solution containing collagenase (0.2 mg/ml; Worthington Type II) and trypsin (0.04 mg/ml) at 35° C. for 10-12 min. After this perfusion, the atria were removed and the ventricles minced and transferred to a 50 ml flask with an enzyme solution containing collagenase (0.45 mg/ml), trypsin (0.08 mg/ml), Ca^2+ (0.75 mM) and bovine serum albumin (BSA; 4.8 mg/ml). The flask was shaken vigorously for 5-10 min at 32° C. before the supernatant was removed and the cells were collected by centrifugation, this operation was repeated two or three times and additional disaggregated cells were collected. After centrifugation, the myocytes were resuspended in the buffer solution containing Ca^2+ (0.75 mM) and BSA and stored at room temperature until use. Rod-shaped, Ca^2+-tolerant myocytes, obtained with this procedure, were used within 6 h of dissociation. Measurements were performed only on quiescent myocytes with clear striations
The myocyte suspension or the coverslip with CHO cells was placed into a perfusion chamber, mounted on the stage of an inverted microscope. Unless otherwise indicated, CHO cells were superfused at room temperature with standard external Tyrode's buffer, containing (mM): NaCl, 140; KCl, 5.4; CaCl2, 1; MgCl2, 1; HEPES, 5; glucose, 10; adjusted to pH 7.4. Recordings were begun after the current reached a stable baseline (usually 3 to 4 min after initial cell rupture). In myocytes, TASK-1 current is small and exists in the presence of numerous larger K^+ currents. […] Membrane potential and current were measured in the whole cell configuration using borosilicate glass pipettes with a tip resistance between […] and filled with a pipette solution containing (mM): aspartic acid, 130; KOH, 146; NaCl, 10; CaCl2, 2; EGTA, 5; HEPES, 10; MGATP, 2; pH 7.2. […] Myocytes treated with the peptides were monitored continuously beginning immediately after rupture to detect the occurrence of any arrhythmias during dialysis of the peptide. […]

murine TASK-1 = assay: TASK-1 current expressed in CHO cells (whole-cell ramp clamp); assay type: cell-based, mouse; settings: peptide 100 nM in pipette, PMA 100 nM; for effect of peptide on C-PAF and PMA inhibition of TASK-1 current: C-PAF 185 nM
Experimental: The TASK-1 clone (provided by Professor Y. Kurachi, Osaka University) was co-transfected in CHO cells with CD8 plasmid using Lipofectamine Plus (Invitrogen) according to the manufacturer's instructions. 48 h later cells were transferred to the electrophysiology chamber and anti-CD8 coated beads (Dynal Biotech) were added to identify CD8 expressing cells. Expressing cells were voltage clamped using a ramp clamp (see below). CHO cells were used in these experiments, in part, because they express endogenous PAFR.
Chinese hamster ovary cells (CHO) were grown in F-12 medium supplemented with 10% fetal bovine serum. Twenty-four hours prior to transfection, cells were seeded into 6 well plates at 80-90% of confluence. Transfections were carried out with the GeneJammer transfection reagent (Stratagene) according to the manufacturer's instructions. Briefly, cells were washed with PBS and their medium replaced with supplemented F-12 medium (900 μl/well). For each well, GeneJammer (6 μl) was incubated with Opti-MEM (90 μl) followed by the addition of DNA (1 μg). This mixture was then added to the wells and 3 h later an additional 2 ml of supplemented F-12 medium was added. After incubating overnight, the cells were washed and their medium replaced.
Cells were either co-transfected with pCMV-TASK1 together with pEGFP-C1 (1 μg total, 3:1) or transfected with […] or T381A-pTIE (1 μg). 48 h after the transfection the cells were checked under the microscope for green fluorescence. Approximately 20% of the cells were positive for EGFP and these were then used for patch-clamp experiments. Due to the culture-to-culture variability in the expression of TASK-1 current, most comparisons were made on matched controls from the same transfection. Summary results were then obtained by pooling data from several different culture preparations.
(§2) The myocyte suspension or the coverslip with CHO cells was placed into a perfusion chamber, mounted on the stage of an inverted microscope. Unless otherwise indicated, CHO cells were superfused at room temperature with standard external Tyrode's buffer, containing (mM): NaCl, 140; KCl, 5.4; CaCl2, 1; MgCl2, 1; HEPES, 5; glucose, 10; adjusted to pH 7.4. Recordings were begun after the current reached a stable baseline (usually 3 to 4 min after initial cell rupture). In myocytes, TASK-1 current is small and exists in the presence of numerous larger K^+ currents. In order to increase the inward component of TASK-1 current and to block other potassium currents in myocytes, a modified high K^+ external solution (modified Tyrode's) was used to reduce outward rectification of TASK-1 current. The composition of this solution-was (in mM): NaCl, 100; KCl, 50; CaCl2, 1; MgCl2, 1; HEPES, 5; glucose, 10; tetraethylammonium (TEA), 1; CsCl, 5; adjusted to pH 7.4. Membrane potential and current were measured in the whole cell configuration using borosilicate glass pipettes with a tip resistance between […] and filled with a pipette solution containing (mM): aspartic acid, 130; KOH, 146; NaCl, 10; CaCl2, 2; EGTA, 5; HEPES, 10; MGATP, 2; pH 7.2. The stock solutions of C-PAF and of the PKC inhibitor, bisindolylmaleimide (BIM-I; Calbiochem), were prepared in water and diluted to the final concentrations in Tyrode's or modified Tyrode's, as appropriate. The PKC activator, PMA, was prepared in DMSO and then diluted in Tyrode's. […] Myocytes treated with the peptides were monitored continuously beginning immediately after rupture to detect the occurrence of any arrhythmias during dialysis of the peptide. Application of C-PAF to cells treated with the inhibitor peptide was started after the peptide had been permitted to dialyse into the cell (8-10 min after rupture for CHO or 10-12 min after rupture for myocytes).
The current and the voltage protocols were generated using Clampex 8.0 software applied by means of an Axopatch 200-B and a Digidata 1200 interface (Axon Instruments). […]

[4] = test system: mouse ventricular myocytes; assay: Repolarization abnormalities in mouse ventricular myocytes paced at 1 Hz with PKCε peptides; assay type: cell-based
Experimental: as §1, §2
The current and the voltage protocols were generated using Clampex 8.0 software applied by means of an Axopatch 200-B and a Digidata 1200 interface (Axon Instruments). In current clamp mode, for recording action potentials, the signals were filtered at 1 KHz (low pass Bessel filter) and acquired at a sampling rate of 5 KHz. […]

Compound: Nc1nc2ccc(OC(F)(F)F)cc2s1 [riluzole]
- type of activation of human TREK-1 current (TREK-1 [1]): slow-onset activators

Compound: CCCCCC(/C=C/C=C\C/C=C\C/C=C\CCCC(=O)O)OO (centres unmarked) [15-HPETE]
- effect on TREK-1 current (TREK-1 [2]): increases TREK-1 current

Compound: CCCCC[C@H](O)/C=C/C=C\CCCCCCCC(=O)O [13-HODE, 13(S)-hydroxyoctadecadienoic acid]
- effect on TREK-1 current (TREK-1 [2]): reduces current

Compound: N#C/C(=C\c1ccc(O)c(O)c1)C(N)=S [tyrphostin 47]
- arrhythmias induced by PKCε activator peptide during drug superfusion [3]: fewer arrhythmias

Compound: EAVSLKPT [PKCε-inhibitor peptide]
- effect of peptide on ability of C-PAF to reduce TASK-1 current (TASK-1): significantly inhibited
- C-PAF-sensitive current in the presence of peptide (TASK-1; ramp −50 to +30 mV, modified Tyrode's, inhibitor peptide 100 nM): abolished
- effect of peptide on PMA-sensitive current (murine TASK-1): completely blocked
- effect of peptide on C-PAF and PMA inhibition of TASK-1 current (murine TASK-1): blocked the effect
- repolarization abnormalities ([4]; C-PAF, PKCε-specific inhibitor peptide 100 nM in pipette): completely absent

Compound: LSETKPAV [scrambled peptide]
- effect of peptide on ability of C-PAF to reduce TASK-1 current (TASK-1): had no effect
- effect of peptide on C-PAF and PMA inhibition of TASK-1 current (murine TASK-1): no effect
- cells with repolarization abnormalities / abnormal automaticity ([4]; peptide in pipette, no added C-PAF): 2 of 10

Compound: CCCCC/C=C\C/C=C\C/C=C\C/C=C\CCCC(=O)O [arachidonic acid]
- arrhythmias induced by PKCε activator peptide during drug superfusion [3]: fewer arrhythmias

Compound: COc1ccc(C[C@H]2NC[C@H](O)[C@H]2OC(C)=O)cc1 [anisomycin]
- type of activation of human TREK-1 current (TREK-1 [1]): slow-onset activators
